Read-outs that look alike come from different tables or passages of the source.
Experiments:
[1] = molecular target: purified human IDO protein (Homo sapiens, UniProt P14902); assay: Enzymatic IDO assay (kynurenine production, absorbance 480 nm); conditions: enzymatic activity
human IDO = human IDO (Homo sapiens, UniProt P14902); assay: Cell based IDO/kynurenine assay in IDO-293-T-Rex cells; conditions: kynurenine production, read-out: hIDO EC50
Procedure: 293-T-REx™ cells (Invitrogen) constitutively express a tet operator binding repressor protein and are maintained in DMEM, 10% FBS, 1× Penicillin+Streptomycin, 2 mM L-glutamine, 5 μg/mL blasticidin at 37° C. with a 5% CO2 in air atmosphere and typically split prior to confluency. Cells were passed by splitting the culture 1/10—by removing media by aspiration, washing 1× with PBS, incubating with 0.25% trypsin/EDTA until the cells detach, disbursing the cells in fresh growth media, and plating at 1/10 dilutions in fresh growth media. For long term cryopreservation, cells are detached from the plate as described above, collected by centrifugation, resuspended in freeze medium (growth medium, 10% DMSO), stored in 1.8 mL cyropreservation vials (˜2−5×10^6 cells per vial), in liquid nitrogen vapor storage tanks.
IDOl-expressing 293-T-Rex™ cell lines were generated by stable transfection of plasmid pcDNA-tetO-IDO expressing human IDO or murine IDO under the control of the doxycycline-inducible CMV-tet promoter. Transfected cells were selected in DBZ medium (DMEM, 10% FBS, 1× Penicillin+Streptomycin, 2 mM L-glutamine, 5 μg/mL blasticidin and 25 μg/ml Zeocin) at 37° C. with a 5% CO2 in air atmosphere. Individual clones were isolated by limiting dilution cloning from these populations.
[…]. The cells incubated in Neutral medium serve as negative control of the assay. The cells incubated in Induction medium and without inhibitor serve as the positive control of the assay. The incubation is carried out for 16 h at 37° C. in a cell culture incubator. 200 μL of medium are transferred to U-bottom polypropylene 96-well plates containing 25 μL of 30% TCA, incubated 30 minutes at 60° C. and centrifuged at 3400 g for 5 minutes. 150 μL of the clear supernatant is transferred to a polystyrene 96-well plate containing 50 μL of 4% (w/v) of p-dimethylaminobenzaldehyde in acetic acid, incubated for 10 min. Kynurenine concentration is determined by measuring the absorbance at 480 nm.
The conditions of the assay were as described in the examples.

[2] = hIDO IC50, recombinant human IDO, values reported in ranges
[3] = 293T cell line stably expressing human IDO, values reported in ranges
[4] = read-out: hIDO IC50, recombinant human IDO, values reported in ranges
[5] = hIDO IC50, Table 15, recombinant human IDO
[6] = hIDO IC50, Table 16, recombinant human IDO

Sequence of human IDO (P14902 whole entry): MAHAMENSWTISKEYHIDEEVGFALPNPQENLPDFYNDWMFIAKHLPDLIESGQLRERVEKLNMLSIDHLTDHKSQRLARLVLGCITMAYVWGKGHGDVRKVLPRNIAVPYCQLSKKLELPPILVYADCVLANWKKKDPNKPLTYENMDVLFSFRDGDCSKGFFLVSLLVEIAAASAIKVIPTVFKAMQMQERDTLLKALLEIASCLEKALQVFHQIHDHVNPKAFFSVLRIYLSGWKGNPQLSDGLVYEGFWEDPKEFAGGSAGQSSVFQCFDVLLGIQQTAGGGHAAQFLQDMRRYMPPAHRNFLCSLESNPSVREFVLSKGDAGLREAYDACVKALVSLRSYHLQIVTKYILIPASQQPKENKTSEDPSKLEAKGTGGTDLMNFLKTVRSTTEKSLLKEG
Sequence of purified human IDO protein (P14902 whole entry P110S/E119G): as the sequence (P14902 whole entry) above, with P110S, E119G counted along it

SMILES	IC50 [1, 2]	EC50 (human IDO; [3])	further results
CSC(=S)NCCc1c[nH]c2cc(Cl)cc(Cl)c12 [compound 43]		100 to 1000 µM	IC50 [1, 4]: 100 to 1000 µM
O=C(O)CC(=O)c1ccc(F)cc1 [compound 313, 3-(4-fluorophenyl)-3-oxopropanoic acid]	100 to 1000 µM	100 to 1000 µM	
CNC(=O)[C@H](ON)c1ccccc1 [compound 2034, (R)-2-(aminooxy)-N-methyl-2-phenylacetamide]			IC50 [1, 5]: 100 to 1000 µM
CSC(=S)NCCc1c[nH]c2ccc([N+](=O)[O-])cc12 [compound 40]		100 to 1000 µM	IC50 [1, 4]: 100 to 1000 µM
CNCC(ON)c1ccccc1 (stereo not drawn) [compound 1902, 2-(aminooxy)-N-methyl-2-phenylethanamine]			IC50 [1, 5]: 100 to 1000 µM
CC(=O)C1C2CCC(C2)C1(C)C (stereo not drawn) [compound 289, 1-(3,3-dimethylbicyclo[2.2.1]heptan-2-yl)ethanone]	100 to 1000 µM	1000 to 10000 µM	
CSC(=S)NCCc1c[nH]c2ccc(Cl)cc12 [compound 32]		20 to 100 µM	IC50 [1, 4]: 100 to 1000 µM
NOC(CCN1CCOCC1)c1ccccc1 (stereo not drawn) [compound 1929, O-(3-morpholino-1-phenylpropyl)hydroxylamine]			IC50 [1, 5]: 100 to 1000 µM
CSC(=S)NCCc1c[nH]c2cc(C(F)(F)F)cc(C(F)(F)F)c12 [compound 44]		1000 to 10000 µM	IC50 [1, 4]: 100 to 1000 µM
NOC(COc1ccccc1)c1ccccc1 (stereo not drawn) [compound 1937, O-(2-phenoxy-1-phenylethyl)hydroxylamine]			EC50 (human IDO; Table 15, 293T cells expressing human IDO): < 10 µM; IC50 [1, 5]: < 10 µM
CSC(=S)NCCc1c[nH]c2cc(F)c(F)c(F)c12 [compound 45]		100 to 1000 µM	IC50 [1, 4]: 100 to 1000 µM
Cc1ccc(SC(=S)Nc2ccccc2)cc1 [compound 142, p-tolyl phenylcarbamodithioate]	< 20 µM	100 to 1000 µM	
CSC(=S)NCCc1cccc(Cl)c1 [compound 14]		100 to 1000 µM	IC50 [1, 4]: 100 to 1000 µM
NOc1ccccc1 [compound 1900, O-phenylhydroxylamine]			IC50 [1, 6]: 10 to 100 µM
CNCCC(ON)c1ccccc1 (stereo not drawn) [compound 1904, 3-(aminooxy)-N-methyl-3-phenylpropan-1-amine]			IC50 [1, 5]: 100 to 1000 µM
NCCC(ON)c1ccccc1 (stereo not drawn) [compound 1877, 3-(aminooxy)-3-phenylpropan-1-amine]			IC50 [1, 5]: 10 to 100 µM
S=C1SCCCN1Cc1ccccc1 [compound 77, 3-Benzyl-1,3-thiazinane-2-thione]	100 to 1000 µM		
NO[C@@H](CCO)c1ccccc1 [compound 1883, (S)-3-(aminooxy)-3-phenylpropan-1-ol]			IC50 [1, 5]: 100 to 1000 µM
CC(C)(C)OC(=O)NCC(ON)c1ccccc1 (stereo not drawn) [compound 1876, tert-butyl 2-(aminooxy)-2-phenylethylcarbamate]			IC50 [1, 5]: 100 to 1000 µM
CNC(=O)[C@@H](ON)c1ccccc1 [compound 2033, (S)-2-(aminooxy)-N-methyl-2-phenylacetamide]			IC50 [1, 5]: < 10 µM
NO[C@H](Cc1ccccc1)C(=O)O [compound 1690, (R)-2-(aminooxy)-3-phenylpropanoic acid]			IC50 [1, 6]: 100 to 1000 µM
CC(=O)NCC(ON)c1ccccc1 (stereo not drawn) [compound 1899, N-(2-(aminooxy)-2-phenylethyl)acetamide]			IC50 [1, 5]: 100 to 1000 µM
NOC(CCC(=O)NC1CCCCC1)c1ccccc1 (stereo not drawn) [compound 1901, 4-(aminooxy)-N-cyclohexyl-4-phenylbutanamide]			IC50 [1, 5]: 100 to 1000 µM
NOC(CN1CCOCC1)c1ccccc1 (stereo not drawn) [compound 1936, O-(2-morpholino-1-phenylethyl)hydroxylamine]			IC50 [1, 5]: 10 to 100 µM

Second part, led by results:

IC50 [1, 2]	EC50 (human IDO; [3])	SMILES	further results
100 to 1000 µM		O=C(Cc1ccccc1)NO [compound 889, N-hydroxy-2-phenylacetamide]	
100 to 1000 µM	20 to 100 µM	NC(CSC(=S)NCCCc1ccccc1)C(=O)O (stereo not drawn) [compound 140, 2-amino-3-(3-phenylpropyl-carbamo-thioylthio)propanoic acid]	
100 to 1000 µM	100 to 1000 µM	S=C(NCCc1c[nH]c2ccccc12)SCCc1ccccc1 [compound 1, Phenethyl 2-(1H-indol-3-yl)ethylcarbamodithioate]	
100 to 1000 µM	20 to 100 µM	O=C(Cc1ccc2ccccc2c1)NO [compound 827, N-hydroxy-2-(naphthalen-2-yl)acetamide]	
100 to 1000 µM	20 to 100 µM	COc1cc2oc(=O)cc(CSC(=S)NCCc3c[nH]c4ccccc34)c2cc1OC [compound 23, (6,7-Dimethoxy-2-oxo-2H-chromen-4-yl)methyl 2-(1H-indol-3-yl)ethyl-carbamodithioate]	
100 to 1000 µM	100 to 1000 µM	Oc1cccc2ccccc12 [compound 168, naphthalen-1-ol]	
100 to 1000 µM		OCCc1c[nH]c2ccccc12 [compound 606, 2-(1H-indol-3-yl)ethanol]	
100 to 1000 µM	100 to 1000 µM	Fc1ccccc1CCSC(=S)NCCc1c[nH]c2ccccc12 [compound 12, 2-fluorophenethyl 2-(1H-indol-3-yl)ethylcarbamodithioate]	
100 to 1000 µM	100 to 1000 µM	S=C(NCCc1c[nH]c2ccccc12)SCCc1cccc(Cl)c1 [compound 8, 3-Chlorophenethyl 2-(1H-indol-3-yl)ethylcarbamodithioate]	
20 to 100 µM	20 to 100 µM	S=C(NCCc1c[nH]c2ccccc12)SCc1cc2c(cc1Br)OCO2 [compound 65, (6-Bromobenzo[d][1,3]dioxol-5-yl)methyl 2-(1H-indol-3-yl)ethylcarbamodithioate]	
20 to 100 µM	20 to 100 µM	O=C1CSC(=S)N1Cc1ccc2ccccc2c1 [compound 830, 3-(Naphthalen-2-ylmethyl)-2-thioxothiazolidin-4-one]	
100 to 1000 µM		S=C(NCCCc1c[nH]c2ccccc12)c1ccccc1 [compound 673, N-(3-(1H-indol-3-yl)propyl)benzothioamide]	
100 to 1000 µM		CSC(=S)NCCc1ccncc1 [compound 69, Methyl 2-(pyridin-4-yl)ethylcarbamodithioate]	
100 to 1000 µM	1000 to 10000 µM	Nc1ccc2[nH]cc(C(=O)O)c2c1 [compound 352, 5-amino-1H-indole-3-carboxylic acid]	
100 to 1000 µM	100 to 1000 µM	Oc1ccccc1C(=S)NCCc1ccccc1 [compound 634, 2-Hydroxy-N-phenethylbenzothioamide]	
100 to 1000 µM		Nc1ccccc1NC(=O)CCc1c[nH]c2ccccc12 [compound 592, N-(2-aminophenyl)-3-(1H-indol-3-yl)propanamide]	
100 to 1000 µM	100 to 1000 µM	O=C1C(CSC(=S)Nc2ccccc2)NC(=S)N1c1ccccc1 (stereo not drawn) [compound 151, (5-oxo-1-phenyl-2-thioxoimidazolidin-4-yl)methyl phenylcarbamodithioate]	
< 20 µM	20 to 100 µM	O=C1C(O)=C(CC2=C(O)C(=O)c3ccccc3C2=O)C(=O)c2ccccc21 [compound 477]	
100 to 1000 µM		CCC(CC)C1NC(C(=O)O)Cc2c1[nH]c1ccccc21 (stereo not drawn) [compound 525, 1-(pentan-3-yl)-2,3,4,9-tetrahydro-1H-pyrido[3,4-b]indole-3-carboxylic acid]	
100 to 1000 µM		Cc1cccc(CCSC(=S)NCCc2c[nH]c3ccccc23)c1 [compound 20, 3-Methylphenethyl 2-(1H-indol-3-yl)ethylcarbamodithioate]	
100 to 1000 µM		Oc1noc(O)c1-c1ccccc1 [compound 707, 4-phenylisoxazole-3,5-diol]	
100 to 1000 µM		Oc1ccc(Cc2ccccc2)c2cccnc12 [compound 664, 5-benzylquinolin-8-ol]	
100 to 1000 µM		S=C(NCCCc1c[nH]c2ccccc12)Nc1nccs1 [compound 565, 1-(3-(1H-indol-3-yl)propyl)-3-(thiazol-2-yl)thiourea]	
100 to 1000 µM		S=C1OCCN1Cc1ccc2ccccc2c1 [compound 786, 3-(Naphthalen-2-ylmethyl)oxazolidine-2-thione]	
100 to 1000 µM		S=C1OCCN1Cc1ccccc1 [compound 81, 3-Benzyloxazolidine-2-thione]	
100 to 1000 µM		S=C(NCc1ccc2ccccc2c1)Nc1nccs1 [compound 591, 1-(naphthalen-2-ylmethyl)-3-(thiazol-2-yl)thiourea]	
100 to 1000 µM		S=C(NCc1c[nH]c2ccccc12)Nc1nccs1 [compound 568, 1-((1H-indol-3-yl)methyl)-3-(thiazol-2-yl)thiourea]	
100 to 1000 µM		O=C(O)CCn1[nH]c(=O)c2ccccc21 [compound 267, 3-(3-oxo-2,3-dihydro-1H-indazol-1-yl)propanoic acid]	

Reference: patent US20130289083A1, “IDO Inhibitors” (priority 2007, published 2013)
